Tests used:
[1] = system: HEK293 cells; assay: Cell viability (MTT) assay, HEK293 cells; type: cell-based, human; settings: 48 hours, two-way ANOVA with Dunnett's
[2] = system: A549 cells; assay: Cell viability (MTT) assay, A549 cells; type: cell-based, human; settings: 48 hours, two-way ANOVA with Dunnett's
[3] = Dose 1 (0.025 mg/ml nanocomposite; 0.001125 mg/ml free Cp, Rib)
[4] = Dose 2 (0.05 mg/ml nanocomposite; 0.00225 mg/ml free Cp, Rib)
[5] = Dose 3 (0.1 mg/ml nanocomposite; 0.0045 mg/ml free Cp, Rib)
[6] = Dose 4 (0.5 mg/ml nanocomposite; 0.0225 mg/ml free Cp, Rib)

| Compound | Significant (cell viability vs no-treatment control) [1, 3] | Significant (cell viability vs no-treatment control) [1, 4] | Significant (cell viability vs no-treatment control) [1, 5] | Significant (cell viability vs no-treatment control) [1, 6] | Significant (cell viability vs no-treatment control) [2, 3] | Significant (cell viability vs no-treatment control) [2, 4] | Significant (cell viability vs no-treatment control) [2, 5] | Significant (cell viability vs no-treatment control) [2, 6] |
| --- | --- | --- | --- | --- | --- | --- | --- | --- |
| N.N.[Cl][Pt][Cl] [Cp, cisplatin] | No | No | No | Yes | No | No | No | Yes |
| NC(=O)c1ncn([C@@H]2O[C@H](CO)[C@@H](O)[C@H]2O)n1 [Rib, 1-β-D-Ribofuranosyl-1,2,4-triazole-3-carboxamide] | No | No | Yes | Yes | No | No | No | Yes |

— patent US12629392B2, “Method of treating covid-19 infection using superparamagnetic iron oxide nanoparticle” (Imam Abdulrahman Bin Faisal University, priority 2023, dated 2026)
